Measured values as given in patent US20250059144A1, “Tellurium-containing compounds and the use of treating bacterial infections thereof” (Kaohsiung Medical University, priority 2021, published 2025).
“And” between values parts separate entries of the source, which are not always exact repeats. Identical values can stand only once. Like-named read-outs stand apart in the source and are kept apart here. One block for each compound: values may come before it.

Assays:
[1] = system: Acinetobacter baumannii strain AB03; experiment: MIC in cation-adjusted Muller-Hinton broth; type: cell-based
Excerpt: (§1) Compound (c) was therefore used for further evaluation of anti-bacterial activities to carbapenem resistant bacteria involving Escherichia coli, Klebsiella pneumoniae, Pseudomonas aeruginosa, and Acinetobacter baumannii in the following experiments.

Escherichia coli CRE-415 = experiment: MIC in cation-adjusted Muller-Hinton broth; type: cell-based
Excerpt: as §1

[2] = system: Klebsiella pneumoniae ATCC BAA-1705; experiment: MIC in cation-adjusted Muller-Hinton broth; type: cell-based
Excerpt: as §1

[3] = system: Klebsiella pneumoniae strain CRE-723; experiment: MIC in cation-adjusted Muller-Hinton broth; type: cell-based
Excerpt: as §1

[4] = system: Pseudomonas aeruginosa strain PA13; experiment: MIC in cation-adjusted Muller-Hinton broth; type: cell-based
Excerpt: as §1

[5] = Acute toxicity test (survival, LD50); type: in vivo; settings: male mice; for survival rate: one week observation
Experimental: In terms of acute toxicology, the dose-response relationship is represented in S-shaped curve. It is not easy to obtain the LD50 value directly through the experiment. Therefore, the animal survival rate of 20˜80% must be used as the benchmark, and the LD50 value is obtained by calculating the dose and survival rate of the area. Six male mice of each group were injected with 15, 20, and 25 mg/kg of compound (c) by intraperitoneal injection. After a week of behavior and physiological observations, the survival rate was recorded and applied for linear regression.

[6] = Histopathological lesion evaluation and severity score of surviving mice; type: in vivo
Experimental: In the experiment, 2 mice in the 20 and 25 mg/kg groups were randomly selected for euthanasia, the tissues involving heart, liver, spleen, lung, kidney, stomach, small intestine, large intestine, pancreatic were sliced and stained and were used for histopathological lesion evaluation and severity score by a professional pathology veterinarian (Disease Animal Special Certificate No. 0040).
Extremely light to slight monocyte infiltration in the heart was a lesion that were occasionally observed by a normal mouse might be irrelevant to experimental disposal, and a small number of monocyte infiltration cells could be observed in the portal vein area of the liver of most mice. Mild to moderate hepatocyte glycogen deposition were found in all mice, and significant swollen occurred in their liver cells, this was a common background lesions in normal mice in the case of sacrifice without sufficient fasting. It was worth noting that slight necrosis of the liver was only seen in No. 25-2. Increased mitosis in liver cell is one of the common regeneration or hyperplasia reactions for liver tissue damage. Compared with normal liver tissue, damaged liver tissue may have more mitosis cells, but it is also occasionally seen in normal mice. The mice of Nos. 20-1 and 25-2 had extremely slight to mild hepatocytes increased mitosis. It might be irrelevant to experimental disposal since the degree of increased mitosis was extremely mild to mild and was not related to the dose. Extramedullary hematopoiesis (EMH) are common lesions of mice liver tissue, it can be considered as background lesion if the degree is extremely mild. […] Besides, EMH is also common lesions occurred in spleen of mice and may exist in normal mice, the mild degree of EMH may be therefore considered as background lesions. Extremely mild to mild EMH lesions were found in spleen tissues of all mice. It could be found in the number 25-2 mouse spleen that its lymphoid follicle had multiple extremely mild apoptosis lesions, but no tissue necrosis was found. […] Chronic progressive nephropathy (CPN) involving lesions of tubule basophilia, basement membrane thickening, mononuclear inflammatory cells infiltration, glomerulosclerosis, or tubule dilatation is the most common kidney lesions in the kidney tissues of mice. The cause of CPN is unknown, it can be found in normal mice, and the incidence is increased depend on ages, male mice have a higher incidence than female mice. Therefore, it is generally not recommended to score CPN lesion separately. CPN may also occur after drug administration, it should be considered as treatment-related lesions if the severities have a significant difference in group differences. In this study, there were moderate or higher CPN lesions in each mouse kidney tissue, except for mouse of No. 25-2. However, the difference was not related to the dose and might not be related to the experimental disposal.

[7] = system: Acinetobacter baumannii strain AB03; experiment: Carbapenem-resistant Acinetobacter baumannii sepsis infection model; type: in vivo; settings: 40 mg/kg/day, 3 days treatment, A. baumannii AB03 septic mice
Experimental: For establishing the carbapenem-resistant Acinetobacter baumannii sepsis infection model, 12 mice were separated in each group and were infected with the standard Acinetobacter baumannii strain AB03 with lethal dosage by intraperitoneal injection. The compound (c) was given to test groups at the dosage of 0.33, 1.67 and 3.33 mg/kg/day for 3 days treatment, respectively. The clinical standard therapy colistin methanesulfonate (CMS) (40 mg/kg/day) was selected as compared drug. 1×PBS was given as placebo group. Mice survival rate were observed four times a day and were recorded as the curve.

[8] = system: carbapenem-resistant Acinetobacter baumannii isolated from infected blood (n = 28); experiment: MICs in carbapenem-resistant isolate panel; type: cell-based; settings: A. baumannii (n = 28)
Excerpt: as §1
(§2) 34 carbapenem-resistant Klebsiella pneumoniae, 34 carbapenem-resistant Escherichia coli, 29 carbapenem-resistant Pseudomonas aeruginosa isolated from infected blood, and 28 carbapenem-resistant Acinetobacter baumannii isolated from infected blood were selected to evaluate the anti-bacterial activities of compounds (c).

[9] = system: carbapenem-resistant Escherichia coli (n = 34); experiment: MICs in carbapenem-resistant isolate panel; type: cell-based; settings: E. coli (n = 34)
Excerpt: as §1, §2

[10] = system: carbapenem-resistant Klebsiella pneumoniae (n = 34); experiment: MICs in carbapenem-resistant isolate panel; type: cell-based; settings: K. pneumoniae (n = 34)
Excerpt: as §1, §2

[11] = system: carbapenem-resistant Pseudomonas aeruginosa isolated from infected blood (n = 29); experiment: MICs in carbapenem-resistant isolate panel; type: cell-based; settings: P. aeruginosa (n = 29)
Excerpt: as §1, §2

[12] = AB03, read-out: MIC A. baumannii strain AB03
[13] = CRE415, read-out: MIC E. coli CRE-415
[14] = ATCCBAA1705, read-out: MIC K. pneumoniae ATCC BAA-1705
[15] = CRE723, read-out: MIC K. pneumoniae strain CRE-723
[16] = PA13, read-out: MIC P. aeruginosa strain PA13
[17] = 20 mg/kg, mice 20-1, 20-2, day 7
[18] = 25 mg/kg, mice 25-1, 25-2, day 7

Compound: Cl[TeH]1(Cl)(Cl)[n+]2ccccc2-c2cccc[n+]21 [compound (b)]
- MIC [1, 12]: 2 µg/mL
- MIC (Escherichia coli CRE-415; [13]): 4 µg/mL
- MIC [2, 14]: 16 µg/mL
- MIC [3, 15]: 16 µg/mL
- MIC [4, 16]: 4 µg/mL

Compound: CN1CCN(C)[TeH]1(Cl)(Cl)Cl [compound (c)]
- survival rate ([5]; 15 mg/kg intraperitoneal): 100%
- survival rate ([5]; 20 mg/kg intraperitoneal): 83.3%
- survival rate ([5]; 25 mg/kg intraperitoneal): 33.3%
- LD50 ([5]; intraperitoneal, linear regression of 20 and 25 mg/kg survival): 23.3 mg/kg
- Heart Mononuclear cells infiltration severity score [6, 17]: 0
- Heart Necrosis/ degeneration severity score [6, 17]: 0
- Kidney Nephropathy, chronic progressive (CPN) severity score [6, 17]: 3 and 4
- Large intestine Erosion/ ulcer severity score [6, 17]: 0
- Large intestine Mononuclear cells infiltration severity score [6, 17]: 0
- Liver Extramedullary hematopoiesis, EMH severity score [6, 17]: 1 and 2
- Liver Glycogen deposition severity score [6, 17]: 3 and 4
- Liver Increased mitosis severity score [6, 17]: 0
- Liver Necrosis/ degeneration severity score [6, 17]: 0
- Lung Mononuclear cells infiltration severity score [6, 17]: 0
- Lung Necrosis/ degeneration severity score [6, 17]: 0
- Pancreas Mononuclear cells infiltration severity score [6, 17]: 0
- Pancreas Necrosis severity score [6, 17]: 0
- Small intestine Erosion/ ulcer severity score [6, 17]: 0
- Small intestine Mononuclear cells infiltration severity score [6, 17]: 0
- Spleen Apoptosis severity score [6, 17]: 0
- Spleen Extramedullary hematopoiesis, EMH severity score [6, 17]: 2
- Spleen Necrosis severity score [6, 17]: 0
- Stomach Erosion/ ulcer severity score [6, 17]: 0
- Stomach Mononuclear cells infiltration severity score [6, 17]: 0
- Heart Necrosis/ degeneration severity score [6, 18]: 0
- Large intestine Erosion/ ulcer severity score [6, 18]: 0
- Large intestine Mononuclear cells infiltration severity score [6, 18]: 0
- Liver Increased mitosis severity score [6, 18]: 0
- Liver Mononuclear cells infiltration severity score [6, 18]: 1
- Lung Mononuclear cells infiltration severity score [6, 18]: 0
- Lung Necrosis/ degeneration severity score [6, 18]: 0
- Pancreas Mononuclear cells infiltration severity score [6, 18]: 0
- Pancreas Necrosis severity score [6, 18]: 0
- Small intestine Erosion/ ulcer severity score [6, 18]: 0
- Small intestine Mononuclear cells infiltration severity score [6, 18]: 0
- Spleen Extramedullary hematopoiesis, EMH severity score [6, 18]: 2 and 1
- Spleen Necrosis severity score [6, 18]: 0
- Stomach Erosion/ ulcer severity score [6, 18]: 0
- Stomach Mononuclear cells infiltration severity score [6, 18]: 0

Compound: Cc1cc[n+]2c(c1)-c1cc(C)cc[n+]1[TeH]2(Cl)(Cl)Cl [compound (g)]
- MIC [1, 12]: 4 µg/mL
- MIC (Escherichia coli CRE-415; [13]): 16 µg/mL
- MIC [2, 14]: 16 µg/mL
- MIC [3, 15]: 16 µg/mL
- MIC [4, 16]: 4 µg/mL

Compound: colistin methanesulfonate [CMS]
- survival rate [7]: 16.7%

- MIC range [8]: <0.5~8 μg/mL
- MIC50 ([8]; Acinetobacter baumannii): 2 µg/mL
- MIC90 ([8]; Acinetobacter baumannii): 4 µg/mL
- MIC range [9]: 0.5~32 μg/mL
- MIC50 ([9]; Escherichia coli): 4 µg/mL
- MIC90 ([9]; Escherichia coli): 8 µg/mL
- MIC range [10]: <0.5~16 μg/mL
- MIC50 ([10]; Klebsiella pneumoniae): 2 µg/mL
- MIC90 ([10]; Klebsiella pneumoniae): 16 µg/mL
- MIC50 [11]: 64 µg/mL
- MIC90 [11]: > 64 µg/mL
Compound: Cl[TeH]1(Cl)(Cl)OCCO1 [AS101]

Compound: Cc1ccc2[n+](c1)[TeH](Cl)(Cl)(Cl)[n+]1cc(C)ccc1-2 [compound (h)]
- MIC [1, 12]: 4 µg/mL
- MIC (Escherichia coli CRE-415; [13]): 4 µg/mL
- MIC [2, 14]: 8 µg/mL
- MIC [3, 15]: 16 µg/mL
- MIC [4, 16]: 8 µg/mL

Compound: Cl[Te]1(Cl)Nc2ccccc2N1 [compound (a)]
- MIC [1, 12]: 1 µg/mL
- MIC (Escherichia coli CRE-415; [13]): 1 µg/mL
- MIC [2, 14]: 4 µg/mL
- MIC [3, 15]: 2 µg/mL
- MIC [4, 16]: 2 µg/mL

Compound: Cl[TeH]1(Cl)(Cl)[n+]2cccc3ccc4ccc[n+]1c4c32 [compound (f)]
- MIC [1, 12]: 1 µg/mL
- MIC (Escherichia coli CRE-415; [13]): 8 µg/mL
- MIC [2, 14]: 8 µg/mL
- MIC [3, 15]: 4 µg/mL
- MIC [4, 16]: 2 µg/mL

- MIC ([1]; AB03, CAMHB, read-out: MIC A. baumannii strain AB03): 1 µg/mL
- MIC (Escherichia coli CRE-415; CRE415, CAMHB, read-out: MIC E. coli CRE-415): 1 µg/mL
- MIC ([2]; ATCCBAA1705, CAMHB, read-out: MIC K. pneumoniae ATCC BAA-1705): 8 µg/mL
- MIC ([3]; CRE723, CAMHB, read-out: MIC K. pneumoniae strain CRE-723): 8 µg/mL
- MIC ([4]; PA13, CAMHB, read-out: MIC P. aeruginosa strain PA13): 1 µg/mL
Compound: [2H]C1([2H])O[TeH](Cl)(Cl)(Cl)OC1([2H])[2H] [compound (d)]

Compound: Cl[TeH]1(Cl)(Cl)[n+]2ccccc2SSc2cccc[n+]21 [compound (e)]
- MIC [1, 12]: 4 µg/mL
- MIC (Escherichia coli CRE-415; [13]): 4 µg/mL
- MIC [2, 14]: 16 µg/mL
- MIC [3, 15]: 32 µg/mL
- MIC [4, 16]: 16 µg/mL
